Test results as given in patent US7425556B2 (priority 2005, dated 2008).

Assays:
[1] = target: T1, GABAA2 receptors (α2, β3, γ2 receptor subunits) (Homo sapiens, UniProt P18507+P47869); test: biochemical; settings: [3H]-Flunitrazepam ~2 nM, α2β3γ2 Sf9 membranes, 1 hr at 4° C.; read-out: GABAA2 Binding Ki
T1 construct: host or cells: Sf9 cells (membranes)

[2] = target: T2, GABAA1 (human α1β2γ2 GABAA receptor) (Homo sapiens, UniProt P14867+P18507); test: Two-electrode voltage-clamp in Xenopus oocytes, potentiation of GABA EC10 current, GABAA1; format: cell-based; settings: percentage potentiation of GABA EC10 current divided by that of diazepam
T2 construct: expressed in transfected cells; host or cells: Xenopus laevis oocytes injected with capped cRNA

[3] = target: T3, GABAA2 (human α2β3γ2 GABAA receptor) (Homo sapiens, UniProt P18507+P47869); test: Two-electrode voltage-clamp in Xenopus oocytes, potentiation of GABA EC10 current, GABAA2; format: cell-based; settings: percentage potentiation of GABA EC10 current divided by that of diazepam
T3 construct: expressed in transfected cells; host or cells: Xenopus laevis oocytes injected with capped cRNA

[4] = target: human Melatonin receptor 1 (MT1) (Homo sapiens, UniProt P48039); test: biochemical; settings: for Emax: read-out: MT1 Receptor GTPgS Emax; for EC50: hMT1/HEK293F membranes, agonist potency, read-out: MT1 Receptor GTPgS EC50; for MT1 Receptor GTPgS Emax: efficacy, 100% effect = 3 nM 2-Iodomelatonin, 0% = vehicle
Method: Method II MT1 GTPγ^35S-SPA Assay Test Validation Standards
Test compounds were synthesized in house. […] 2 μl of diluted compounds were transferred to Optic-assay-plates.
(Freshly add protease inhibitor cocktail tables from Roche). […] The protein concentration of the membrane was determined. The membranes were aliquoted and stored at −80° C.
• MAX response (100% effect) was determined as the effect of 3 nM of 2-lodomelatonin. • MIN response (0% effect) was determined as the effect of vehicle control. Description of Experimental Procedure
The final concentration of GTPγ^35S was 200 pM.

[5] = target: MT1 Receptor (Homo sapiens, UniProt P48039); test: biochemical; format: binding; settings: for Ki: read-out: MT1 Receptor Binding Ki
MT1 Receptor, sequence (P48039 whole entry): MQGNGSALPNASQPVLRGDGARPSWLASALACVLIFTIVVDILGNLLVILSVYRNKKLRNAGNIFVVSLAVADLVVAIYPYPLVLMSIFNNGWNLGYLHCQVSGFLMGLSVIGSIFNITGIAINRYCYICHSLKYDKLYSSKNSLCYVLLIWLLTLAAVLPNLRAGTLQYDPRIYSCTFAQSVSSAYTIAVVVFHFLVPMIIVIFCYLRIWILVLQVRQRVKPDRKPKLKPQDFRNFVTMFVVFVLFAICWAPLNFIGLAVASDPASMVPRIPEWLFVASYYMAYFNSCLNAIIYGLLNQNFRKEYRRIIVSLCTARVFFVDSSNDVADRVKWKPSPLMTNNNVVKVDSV

human Melatonin receptor 1 (MT1), sequence (P48039 whole entry): as above
T1 sequence (P47869 29-451): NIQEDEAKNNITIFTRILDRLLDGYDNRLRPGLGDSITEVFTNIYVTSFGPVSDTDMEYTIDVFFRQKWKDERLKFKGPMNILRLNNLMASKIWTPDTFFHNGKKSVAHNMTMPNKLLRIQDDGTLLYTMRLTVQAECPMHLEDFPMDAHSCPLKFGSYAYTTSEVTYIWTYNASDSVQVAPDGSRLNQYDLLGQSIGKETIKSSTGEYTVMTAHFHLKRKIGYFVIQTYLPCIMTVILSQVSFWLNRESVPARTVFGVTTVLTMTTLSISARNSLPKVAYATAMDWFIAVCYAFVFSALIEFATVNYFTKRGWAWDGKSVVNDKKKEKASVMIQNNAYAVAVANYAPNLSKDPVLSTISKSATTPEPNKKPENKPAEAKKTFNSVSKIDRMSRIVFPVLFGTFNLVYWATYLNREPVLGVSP
T1 sequence (P28472 26-473 partner): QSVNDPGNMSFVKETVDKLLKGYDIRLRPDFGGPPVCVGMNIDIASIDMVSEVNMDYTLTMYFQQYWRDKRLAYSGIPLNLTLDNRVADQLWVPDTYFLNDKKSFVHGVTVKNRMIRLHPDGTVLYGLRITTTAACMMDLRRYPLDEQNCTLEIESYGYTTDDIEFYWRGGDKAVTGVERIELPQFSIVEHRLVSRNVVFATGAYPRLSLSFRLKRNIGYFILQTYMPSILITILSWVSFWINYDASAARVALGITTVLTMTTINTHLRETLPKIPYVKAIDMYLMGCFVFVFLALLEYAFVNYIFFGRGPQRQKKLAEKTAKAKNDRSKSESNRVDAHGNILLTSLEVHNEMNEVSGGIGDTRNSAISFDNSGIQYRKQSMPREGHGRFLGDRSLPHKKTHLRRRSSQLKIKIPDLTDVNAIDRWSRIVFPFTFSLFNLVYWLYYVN
T1 sequence (P18507 40-475): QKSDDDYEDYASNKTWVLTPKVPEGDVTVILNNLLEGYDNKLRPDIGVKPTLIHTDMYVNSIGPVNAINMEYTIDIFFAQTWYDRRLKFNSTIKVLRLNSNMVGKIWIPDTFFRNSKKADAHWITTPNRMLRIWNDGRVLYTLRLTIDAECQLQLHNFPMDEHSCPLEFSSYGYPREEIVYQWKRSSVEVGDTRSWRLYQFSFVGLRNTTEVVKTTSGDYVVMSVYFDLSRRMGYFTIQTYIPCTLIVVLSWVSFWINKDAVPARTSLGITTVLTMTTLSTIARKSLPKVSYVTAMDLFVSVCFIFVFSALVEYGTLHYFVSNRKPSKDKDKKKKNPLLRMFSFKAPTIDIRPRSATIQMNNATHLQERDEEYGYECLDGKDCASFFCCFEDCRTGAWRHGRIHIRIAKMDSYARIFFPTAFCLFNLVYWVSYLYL
T3 sequence (P47869 29-451): as the sequence (P47869 29-451) above
T3 sequence (P28472 26-473 partner): as the sequence (P28472 26-473 partner) above
T3 sequence (P18507 40-475): as the sequence (P18507 40-475) above
T2 sequence (P14867 28-456): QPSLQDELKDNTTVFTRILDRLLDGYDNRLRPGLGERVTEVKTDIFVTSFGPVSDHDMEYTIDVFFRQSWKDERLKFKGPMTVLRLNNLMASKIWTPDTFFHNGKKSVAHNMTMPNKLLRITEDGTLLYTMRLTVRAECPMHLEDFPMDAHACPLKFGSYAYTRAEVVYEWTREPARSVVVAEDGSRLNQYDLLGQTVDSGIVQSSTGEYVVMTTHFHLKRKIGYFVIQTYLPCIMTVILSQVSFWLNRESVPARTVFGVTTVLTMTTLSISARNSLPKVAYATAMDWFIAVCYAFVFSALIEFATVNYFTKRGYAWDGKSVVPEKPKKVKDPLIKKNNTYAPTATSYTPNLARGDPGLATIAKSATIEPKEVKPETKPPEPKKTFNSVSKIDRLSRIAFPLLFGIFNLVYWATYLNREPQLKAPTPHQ
T2 sequence (P47870 25-512 partner limits assumed): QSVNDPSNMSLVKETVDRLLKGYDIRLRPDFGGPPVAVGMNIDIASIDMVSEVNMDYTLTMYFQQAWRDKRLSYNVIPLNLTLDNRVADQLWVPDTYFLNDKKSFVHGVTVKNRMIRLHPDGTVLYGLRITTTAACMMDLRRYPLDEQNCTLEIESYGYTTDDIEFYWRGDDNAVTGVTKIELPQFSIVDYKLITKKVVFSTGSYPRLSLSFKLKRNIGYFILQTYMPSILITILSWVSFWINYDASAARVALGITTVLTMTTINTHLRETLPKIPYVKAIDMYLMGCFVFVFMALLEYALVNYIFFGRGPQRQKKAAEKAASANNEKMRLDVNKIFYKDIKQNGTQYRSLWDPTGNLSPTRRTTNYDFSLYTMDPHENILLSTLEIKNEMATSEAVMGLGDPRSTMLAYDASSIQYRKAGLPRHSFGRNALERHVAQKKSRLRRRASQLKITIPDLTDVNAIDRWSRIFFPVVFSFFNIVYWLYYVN
T2 sequence (P18507 40-475): as the sequence (P18507 40-475) above

In the case of `CCCNC(=O)c1nnc2c(-c3ccc(C)nc3F)cccc2c1N`, the Ki [1] is reported as 1.67 nM, the “Relative Potentiation for GABAA1” value [2] is reported as 0.053 and the “Relative Potentiation for GABAA2” value [3] is reported as 0.27.
With `CCCNC(=O)c1nnc2c(-c3cnccc3C)cccc2c1N` the Ki [1] was 1.68 nM, the “Relative Potentiation for GABAA1” value [2] was 0.083 and the “Relative Potentiation for GABAA2” value [3] was 0.11.
For `CCCNC(=O)c1nnc2c(-c3ccc(F)cc3F)cccc2c1N`, the Ki [1] was 1.72 nM, the “Relative Potentiation for GABAA1” value [2] was −0.088 and the “Relative Potentiation for GABAA2” value [3] was 0.12.
In the case of `CCCNC(=O)c1nnc2c(-c3cc(OC)ccc3F)cccc2c1N`, the Ki [1] is reported as 1.73 nM, the “Relative Potentiation for GABAA1” value [2] is reported as 0.26 and the “Relative Potentiation for GABAA2” value [3] is reported as 0.32.
With `CCCNC(=O)c1nnc2c(-c3cccc(Cl)c3Cl)cccc2c1N` the Ki [1] was 1.82 nM, the “Relative Potentiation for GABAA1” value [2] was 0.067 and the “Relative Potentiation for GABAA2” value [3] was 0.053.
With `CCCCNC(=O)c1nnc2c(-c3cnccc3OC)cccc2c1N` the Ki [1] was 1.84 nM, the “Relative Potentiation for GABAA1” value [2] was 0.2 and the “Relative Potentiation for GABAA2” value [3] was 0.52.
`CCCNC(=O)c1nnc2c(-c3cc(C)ccc3OC)cccc2c1N` was tested, and the Emax [4] was 61%.
In the case of `CCCNC(=O)c1nnc2c(-c3cnccc3OC)cccc2c1N`, the Emax [4] is reported as 64%.
Work on `CCCNC(=O)c1nnc2c(-c3cnc(OC)nc3OC)cccc2c1N` yielded an Emax [4] of 70%.
Molecule `CCCNC(=O)c1nnc2c(-c3cc(OC)ccc3OC)c(F)ccc2c1N` has a Ki [5] of 31 nM, an EC50 [4] of 23.6 nM and an Emax [4] of 64%.
For `CCCNC(=O)c1nnc2c(-c3cc(OC)ccc3OC)cccc2c1N` [drawing 417], the “MT1 Receptor Binding % Inhibition at 1 μM” value ([5]; at 1 μM) was 86%, the Ki [5] was 60 nM and the “MT1 Receptor GTPgS Emax” value [4] was 100. For the same molecule, the EC50 [4] was 37.5 nM.
For `CCCNC(=O)c1nnc2c(-c3cc(OC)ccc3OC)cccc2c1N` [drawing 421], the inhibition at 1 µM ([5]; at 1 μM, read-out: MT1 Receptor Binding % Inhibition at 1 μM) was 91%, the Ki [5] was 36 nM and the “MT1 Receptor GTPgS Emax” value [4] was 61. For the same molecule, the EC50 [4] was 26.7 nM.
